Measurements: the NIST ThermoML archive (doi:10.1016/j.jct.2006.08.003)

Assay: mn = molality of the nth substance listed, in mol/kg
Conditions: 298.15 K, 101 kPa, Liquid; for speed of sound: Sing-around technique in a fixed-path interferometer

C[C@@H](O)[C@H](N)C(=O)O [L-threonine] + O
Conditions	mass density [kg/m3]	speed of sound [m/s]
m1 = 0.04618	998.993	–
m1 = 0.1013	1001.29	1504.7
m1 = 0.1405	1002.91	1507.7
m1 = 0.1798	1004.51	1510.9
m1 = 0.2227	1006.26	1514.3
m1 = 0.2524	1007.45	1516.6
m1 = 0.2755	1008.38	1518.7

CC(=O)[O-].[Na+] [sodium ethanoate] + O
Conditions	speed of sound [m/s]
m1 = 0.5	1547.6
m1 = 1	1590.4
m1 = 2	1658
m1 = 4	1761.8

CC(=O)[O-].CC(=O)[O-].[Mg+2] [magnesium acetate] + O
Conditions	speed of sound [m/s]
m1 = 0.5	1571.7
m1 = 1	1630.4
m1 = 1.5	1680.2
m1 = 2	1724.4

N[C@@H](CO)C(=O)O [L-serine] + O
Conditions	mass density [kg/m3]	speed of sound [m/s]
m1 = 0.1015	1001.52	1503
m1 = 0.1508	1003.67	1506.1
m1 = 0.1958	1005.62	1509
m1 = 0.2564	1008.21	1512.7
m1 = 0.2888	1009.59	1514.9
m1 = 0.3655	1012.8	1519.8
